{"source": "patent US10982284B2", "about": "“Compositions and methods APC, CREB, and BAD pathways to assess and affect cancer” (H. Lee Moffitt Cancer Center and Research Institute, Inc., priority 2011, dated 2021)", "test_in_all_cases": "CellTiter-Blue cell viability assay", "format_in_all_cases": "cell-based, human", "key": {"[1]": {"system": "OVCA433", "details": "OVCA433 ovarian cancer cell line; 72 hours; 50% reduction in growth/viability", "text": "(§1) Ovarian cancer cell lines were obtained from the American Type Culture Collection (Manassas, Va.) (CAOV3, OV90, OVCAR3, SKOV3, TO[…]); from the European Collection of Cell Cultures, Salisbury, UK (A2780CP, A2780S); or from Kyoto University, Kyoto, Japan ([…], Tyknu, and TyknuC is R) or were kind gifts from Dr. Patricia Kruk, Department of Pathology, College of Medicine, University of South Florida, Tampa, Fla., and Susan Murphy, PhD, Dept of OBGYN/Division of GYN Oncology, Duke University, Durham, N.C. […] Cell lines were maintained in RPMI-1640 (Invitrogen, Carlsbad, Calif.) supplemented with 10% fetal bovine serum (Fisher Scientific, Pittsburgh, Pa.), 1% sodium pyruvate, 1% penicillin/streptomycin (Cellgro, Manassas, Va.), and 1% nonessential amino acids (HyClone, Hudson, N.H.). Mycoplasma testing was performed every 6 months following manufacturer's protocol (Lonza, Rockland, Me.). Drug activity was evaluated using a high-throughput CellTiter-Blue cell viability assay. […] After cell adherence, increasing concentrations of cisplatin, carboplatin (Sigma-Aldrich, St. Louis, Mo.), paclitaxel (Sequoia Research Products Ltd., Pangbourne, UK), or carboplatin plus paclitaxel (carbotaxol: constant molar ratio of carboplatin to paclitaxel of 20,000:1) were added to appropriate wells using an automated pipetting station. Four replicate wells were used for each drug concentration and vehicle controls. […] The cells were incubated with the drug for 72 hours, and 5 μL of CellTiter-Blue reagent (Promega Corp) was added to each well. Fluorescence was read at […] using a Synergy 4 microplate reader (Bio-Tek Instruments, Inc., Winooski, Vt.)."}, "[2]": {"system": "CHI", "details": "CHI ovarian cancer cell line; 72 hours; 50% reduction in growth/viability", "text": "as §1"}, "[3]": {"system": "TyknuCisR", "details": "TyknuCisR ovarian cancer cell line; 72 hours; 50% reduction in growth/viability", "text": "as §1"}, "[4]": {"system": "IGR-OV1", "details": "IGR-OV1 ovarian cancer cell line; 72 hours; 50% reduction in growth/viability", "text": "as §1"}, "[5]": {"system": "Ovary1847", "details": "Ovary1847 ovarian cancer cell line; 72 hours; 50% reduction in growth/viability", "text": "as §1"}, "[6]": {"system": "SK-OV-4", "details": "SK-OV-4 ovarian cancer cell line; 72 hours; 50% reduction in growth/viability", "text": "as §1"}, "[7]": {"system": "M41CSR", "details": "M41CSR ovarian cancer cell line; 72 hours; 50% reduction in growth/viability", "text": "as §1"}, "[8]": {"system": "OVCA429", "details": "OVCA429 ovarian cancer cell line; 72 hours; 50% reduction in growth/viability", "text": "as §1"}, "[9]": {"system": "HeyA8", "details": "HeyA8 ovarian cancer cell line; 72 hours; 50% reduction in growth/viability", "text": "as §1"}, "[10]": {"system": "OVCAR8", "details": "OVCAR8 ovarian cancer cell line; 72 hours; 50% reduction in growth/viability", "text": "as §1"}, "[11]": {"system": "OVCAR2", "details": "OVCAR2 ovarian cancer cell line; 72 hours; 50% reduction in growth/viability", "text": "as §1"}, "[12]": {"system": "IMCC3", "details": "IMCC3 ovarian cancer cell line; 72 hours; 50% reduction in growth/viability", "text": "as §1"}, "[13]": {"system": "MCAS", "details": "MCAS ovarian cancer cell line; 72 hours; 50% reduction in growth/viability", "text": "as §1"}, "[14]": {"system": "Tyknu", "details": "Tyknu ovarian cancer cell line; 72 hours; 50% reduction in growth/viability", "text": "as §1"}, "[15]": {"system": "OVCAR10", "details": "OVCAR10 ovarian cancer cell line; 72 hours; 50% reduction in growth/viability", "text": "as §1"}, "[16]": {"system": "BG1", "details": "BG1 ovarian cancer cell line; 72 hours; 50% reduction in growth/viability", "text": "as §1"}, "[17]": {"system": "A2780CP", "details": "A2780CP ovarian cancer cell line; 72 hours; 50% reduction in growth/viability", "text": "as §1"}, "[18]": {"system": "CAOV3", "details": "CAOV3 ovarian cancer cell line; 72 hours; 50% reduction in growth/viability", "text": "as §1"}, "[19]": {"system": "OVCAR5", "details": "OVCAR5 ovarian cancer cell line; 72 hours; 50% reduction in growth/viability", "text": "as §1"}, "[20]": {"system": "OV2008", "details": "OV2008 ovarian cancer cell line; 72 hours; 50% reduction in growth/viability", "text": "as §1"}, "[21]": {"system": "C13", "details": "C13 ovarian cancer cell line; 72 hours; 50% reduction in growth/viability", "text": "as §1"}, "[22]": {"system": "A2008", "details": "A2008 ovarian cancer cell line; 72 hours; 50% reduction in growth/viability", "text": "as §1"}, "[23]": {"system": "M41", "details": "M41 ovarian cancer cell line; 72 hours; 50% reduction in growth/viability", "text": "as §1"}, "[24]": {"system": "CAOV2", "details": "CAOV2 ovarian cancer cell line; 72 hours; 50% reduction in growth/viability", "text": "as §1"}, "[25]": {"system": "A2780S", "details": "A2780S ovarian cancer cell line; 72 hours; 50% reduction in growth/viability", "text": "as §1"}, "[26]": {"system": "OVCA432", "details": "OVCA432 ovarian cancer cell line; 72 hours; 50% reduction in growth/viability", "text": "as §1"}, "[27]": {"system": "OVCAR3", "details": "OVCAR3 ovarian cancer cell line; 72 hours; 50% reduction in growth/viability", "text": "as §1"}, "[28]": {"system": "IMCC5", "details": "IMCC5 ovarian cancer cell line; 72 hours; 50% reduction in growth/viability", "text": "as §1"}, "[29]": {"system": "OVCAR4", "details": "OVCAR4 ovarian cancer cell line; 72 hours; 50% reduction in growth/viability", "text": "as §1"}, "[30]": {"system": "CHIcisR", "details": "CHIcisR ovarian cancer cell line; 72 hours; 50% reduction in growth/viability", "text": "as §1"}, "[31]": {"system": "OVCA420", "details": "OVCA420 ovarian cancer cell line; 72 hours; 50% reduction in growth/viability", "text": "as §1"}, "[32]": {"system": "Dov13", "details": "Dov13 ovarian cancer cell line; 72 hours; 50% reduction in growth/viability", "text": "as §1"}}, "data": [{"smiles": "N.N.[Cl][Pt][Cl]", "note": "[Cisplatin, cisplatin]", "values": [{"measurement": "IC50", "setting": "[1]", "value": 8.8, "unit": "µM"}, {"measurement": "IC50", "setting": "[2]", "value": 4.9, "unit": "µM"}, {"measurement": "IC50", "setting": "[3]", "value": 17.7, "unit": "µM"}, {"measurement": "IC50", "setting": "[4]", "value": 1.4, "unit": "µM"}, {"measurement": "IC50", "setting": "[5]", "value": 8.7, "unit": "µM"}, {"measurement": "IC50", "setting": "[6]", "value": 13, "unit": "µM"}, {"measurement": "IC50", "setting": "[7]", "value": 13.5, "unit": "µM"}, {"measurement": "IC50", "setting": "[8]", "value": 5.8, "unit": "µM"}, {"measurement": "IC50", "setting": "[9]", "value": 33.1, "unit": "µM"}, {"measurement": "IC50", "setting": "[10]", "value": 75.3, "unit": "µM"}, {"measurement": "IC50", "setting": "[11]", "value": 3.7, "unit": "µM"}, {"measurement": "IC50", "setting": "[12]", "value": 22, "unit": "µM"}, {"measurement": "IC50", "setting": "[13]", "value": 61.3, "unit": "µM"}, {"measurement": "IC50", "setting": "[14]", "value": 4.8, "unit": "µM"}, {"measurement": "IC50", "setting": "[15]", "value": 32.5, "unit": "µM"}, {"measurement": "IC50", "setting": "[16]", "value": 36.4, "unit": "µM"}, {"measurement": "IC50", "setting": "[17]", "value": 43.8, "unit": "µM"}, {"measurement": "IC50", "setting": "[18]", "value": 34.4, "unit": "µM"}, {"measurement": "IC50", "setting": "[19]", "value": 12.9, "unit": "µM"}, {"measurement": "IC50", "setting": "[20]", "value": 3.5, "unit": "µM"}, {"measurement": "IC50", "setting": "[21]", "value": 17.9, "unit": "µM"}, {"measurement": "IC50", "setting": "[22]", "value": 1.5, "unit": "µM"}, {"measurement": "IC50", "setting": "[23]", "value": 12.8, "unit": "µM"}, {"measurement": "IC50", "setting": "[24]", "value": 4.5, "unit": "µM"}, {"measurement": "IC50", "setting": "[25]", "value": 4.7, "unit": "µM"}, {"measurement": "IC50", "setting": "[26]", "value": 1.4, "unit": "µM"}, {"measurement": "IC50", "setting": "[27]", "value": 1.3, "unit": "µM"}, {"measurement": "IC50", "setting": "[28]", "value": 4.9, "unit": "µM"}, {"measurement": "IC50", "setting": "[29]", "value": 20.5, "unit": "µM"}, {"measurement": "IC50", "setting": "[30]", "value": 1.3, "unit": "µM"}, {"measurement": "IC50", "setting": "[31]", "value": 13.7, "unit": "µM"}, {"measurement": "IC50", "setting": "[32]", "value": 24.6, "unit": "µM"}]}]}
